The values that follow come from ChEMBL document CHEMBL1158278, “New macrocyclic spermine (budmunchiamine) alkaloids from Albizia gummifera: with some observations on the structure--activity relationships of the budmunchiamines” (J Nat Prod, 1996).

The test system of data set [1] is Pseudomonas aeruginosa. Description: Antibacterial activity against Pseudomonas aeruginosa NCTC 6750. It counts as functional.
Data set [2] concerns Escherichia coli. Description: Antibacterial activity against Escherichia coli NCTC 9001. The class given is functional.
The test system of data set [3] is Bacillus subtilis. Briefly: Antibacterial activity against Bacillus subtilis NCTC 8326 at 50 ug/disk. It counts as functional. The following applies: read-out: IZ.
A short description of data set [4]: Toxicity against brine shrimp. It counts as organism-based. To be noted: artemia, in vivo.
Data set [5] has as its system Escherichia coli. Description: Antibacterial activity against Escherichia coli NCTC 9001 at 50 ug/disk. The class given is functional. To be noted: read-out: IZ.
Data set [6] deals with Staphylococcus aureus. Description: Antibacterial activity against Staphylococcus aureus NCTC 6751. The class given is functional.
Data set [7] has as its system Bacillus subtilis. Briefly: Antibacterial activity against Bacillus subtilis NCTC 8326. The class given is functional.
For data set [8], the system named is Staphylococcus aureus. Briefly: Antibacterial activity against Staphylococcus aureus NCTC 6751 at 50 ug/disk. It counts as functional. To be noted: read-out: IZ.
Data set [9] has as its system Pseudomonas aeruginosa. Description: Antibacterial activity against Pseudomonas aeruginosa NCTC 6750 at 50 ug/disk. The class given is functional. To be noted: read-out: IZ.

In brackets after ≈: the same amount, converted by molar mass.

On to `CCCCCCCCCCCCCCCC1CC(=O)NCCCN(C)CCCCN(C)CCCN1` (configuration not stated), for which the MIC in data set [1] is 32 µg/mL (≈ 64.7 µM); in data set [2] it was 27 µg/mL (≈ 54.6 µM); in [6], 15 µg/mL (≈ 30.3 µM); in data set [7] it was 20 µg/mL (≈ 40.4 µM). The zone of inhibition at 50 µg/disc came to 11 mm in data set [3], 10 mm in data set [5], 12 mm in data set [8] and 10 mm in data set [9]. This compound also displayed an LC50 in data set [4] of 16.5 µg/mL (≈ 33.3 µM).
In the case of `CCCCCCCCCCCCCCCC1CC(=O)NCCCNCCCCN(C)CCCN1C` (configuration not stated), the zone of inhibition at 50 µg/disc in data set [3] turned out to be 10 mm; in data set [5], 9 mm; in data set [8], 11 mm; in data set [9], 10 mm. Besides, the LC50 in [4] was 18.2 µg/mL (≈ 36.8 µM).
Consider `CCCCCCCCCCCCCCCC1CC(=O)NCCCN(C)CCCCNCCCN1C` (configuration not stated), for which the zone of inhibition at 50 µg/disc in data set [3] is 10 mm; in data set [5] it was 9 mm; in data set [8], 11 mm; in [9], 9 mm. For the same compound, in [4], the LC50 turned out to be 15.9 µg/mL (≈ 32.1 µM).
For the compound `CCCCCCCC(O)CCCCCC1CC(=O)NCCCN(C)CCCCN(C)CCCN1C` (configuration not stated), the MIC was determined as 84 µg/mL (≈ 169 µM) in data set [1], 72 µg/mL (≈ 145 µM) in [2], 35 µg/mL (≈ 70.4 µM) in data set [6] and 45 µg/mL (≈ 90.6 µM) in [7]. The zone of inhibition at 50 µg/disc was 8 mm in data set [3], 7 mm in data set [5], 8 mm in data set [8] and 7 mm in data set [9]. The compound also came in with an LC50 in data set [4] of 79.7 µg/mL (≈ 160 µM).
On to `CCCCCCCCCC(O)CCCCCC1CC(=O)NCCCN(C)CCCCN(C)CCCN1` (configuration not stated), for which the zone of inhibition at 50 µg/disc came to 9 mm in data set [3], 7 mm in [5], 9 mm in data set [8] and 7 mm in data set [9]. In addition, in data set [4], the LC50 is 60.4 µg/mL (≈ 118 µM).
On to `CCCCCCCCCC(O)CCCCCC1CC(=O)NCCCN(C)CCCCN(C)CCCN1C` (configuration not stated), for which the MIC was 75 µg/mL (≈ 143 µM) in data set [1], 64 µg/mL (≈ 122 µM) in data set [2], 30 µg/mL (≈ 57.2 µM) in data set [6] and 42 µg/mL (≈ 80 µM) in data set [7]. Moreover, the zone of inhibition at 50 µg/disc was 8 mm in data set [3], 7 mm in [5], 9 mm in data set [8] and 8 mm in data set [9]. Further, the LC50 in [4] stood at 69.1 µg/mL (≈ 132 µM).
Take `CCCCCCCCCCCC1CC(=O)NCCCN(C)CCCCN(C)CCCN1C` (configuration not stated) [BUDMUNCHIAMINE A]: the MIC in [1] came out at 30 µg/mL (≈ 66.3 µM); in data set [2] it was 25 µg/mL (≈ 55.2 µM); in [6] it was 18 µg/mL (≈ 39.8 µM); in data set [7] it was 15 µg/mL (≈ 33.1 µM). Moreover, the zone of inhibition at 50 µg/disc worked out at 11 mm in data set [3], 11 mm in data set [5], 10 mm in [8] and 10 mm in [9]. The compound further came in with an LC50 in data set [4] of 4 µg/mL (≈ 8.83 µM).
`CCCCCCCCCCCCCC1CC(=O)NCCCN(C)CCCCN(C)CCCN1` (configuration not stated) [BUDMUNCHIAMINE G]: the MIC in data set [1] amounted to 35 µg/mL (≈ 75 µM); in [2], 30 µg/mL (≈ 64.3 µM); in [6] it was 18 µg/mL (≈ 38.6 µM); in [7], 24 µg/mL (≈ 51.4 µM). Further, the zone of inhibition at 50 µg/disc in [3] turned out to be 12 mm; in data set [5], 10 mm; in data set [8], 10 mm; in data set [9], 9 mm. The LC50 in data set [4] amounted to 12.3 µg/mL (≈ 26.3 µM).
In the case of `CCCCCCCCCCCCCCCC1CC(=O)NCCCN(C)CCCCN(C)CCCN1C` (configuration not stated) [BUDMUNCHIAMINE K], the MIC in [1] is 28 µg/mL (≈ 55 µM); in [2], 24 µg/mL (≈ 47.2 µM); in [6] it was 15 µg/mL (≈ 29.5 µM); in data set [7], 19 µg/mL (≈ 37.3 µM). Further, the zone of inhibition at 50 µg/disc in data set [3] worked out at 10 mm; in data set [5] it was 11 mm; in [8], 11 mm; in [9], 11 mm. The compound also displayed an LC50 in [4] of 6.6 µg/mL (≈ 13 µM).
For the compound `O=C(N[C@H](CO)[C@H](O)c1ccc([N+](=O)[O-])cc1)C(Cl)Cl` [CHLORAMPHENICOL], the MIC in data set [1] was 26 µg/mL (≈ 80.5 µM); in [2], 12 µg/mL (≈ 37.1 µM); in data set [6], 7 µg/mL (≈ 21.7 µM); in data set [7] it was 7 µg/mL (≈ 21.7 µM). For the same compound, the zone of inhibition at 50 µg/disc stood at 31 mm in [3], 26 mm in data set [5], 24 mm in data set [8] and 17 mm in [9].
